Where two headings read alike, the source gives them in different places.
Assay: Solubility in fluorine-containing organic solvent 1,3-bis(trifluoromethyl)benzene, visually measured
Procedure: The solubility of the fluorine-containing boronic acid ester compound [A] in 1,3-bis(trifluoromethyl)benzene, which was a fluorine-containing organic solvent used in Reference Example 3, described later, was 3.0 g/10 ml·solvent. Here, the solubility was determined in such a manner that the compound was added and stirred in 10 ml of said fluorine-containing organic solvent at 25° C., and then the maximum amount of addition sufficient to make the solution homogeneous was visually measured.
From this fact, a high solubility in a fluorine-containing organic solvent was confirmed.

[1] = 10 ml solvent, stirred at 25° C., maximum amount of addition giving a homogeneous solution, visually measured

Structure (SMILES) | solubility in 1,3-bis(trifluoromethyl)benzene [1] | further results
OB(O)c1ccc(B(O)O)cc1 [1,4-benzene diboronic acid] | insoluble | 
CC1(C)OB(c2ccc(B3OC(C)(C)C(C)(C)O3)cc2)OC1(C)C [1,4-bis(4,4,5,5-tetramethyl-1,3,2-dioxaborolan-2-yl)benzene] |  | solubility in 1,3-bis(trifluoromethyl)benzene: 0.17 g/10 ml·solvent
CN(C(=O)C(F)(OC(F)(F)C(F)(F)C(F)(F)F)C(F)(F)F)c1cc(B2OC(C)(C)C(C)(C)O2)cc(B2OC(C)(C)C(C)(C)O2)c1 (stereo not shown) [compound [A]] | 3.0 g/10 ml·solvent | 
CN(C(=O)C(F)(OC(F)(F)C(F)(OC(F)(F)C(F)(OC(F)(F)C(F)(F)C(F)(F)F)C(F)(F)F)C(F)(F)F)C(F)(F)F)c1cc(B2OC(C)(C)C(C)(C)O2)cc(B2OC(C)(C)C(C)(C)O2)c1 (stereo not shown) [compound [B]] |  | solubility in a fluorine-containing organic solvent (5 g added to 10 ml of 1,3-bis(trifluoromethyl)benzene): a homogeneous solution was formed

Source: US8044221B2, “Fluorine-containing boronic acid ester compound and method for producing the same” (Unimatec Co., Ltd., priority 2008, dated 2011)
